# Results from publication PMC12568630, “SNAP-tag2 for faster and brighter protein labeling” (Nature Chemical Biology, 2025).
# Target: T1, hAGT (Homo sapiens, UniProt P16455)
# T1 construct: gene MGMT; parental hAGT
# T1 sequence (P16455 1-207): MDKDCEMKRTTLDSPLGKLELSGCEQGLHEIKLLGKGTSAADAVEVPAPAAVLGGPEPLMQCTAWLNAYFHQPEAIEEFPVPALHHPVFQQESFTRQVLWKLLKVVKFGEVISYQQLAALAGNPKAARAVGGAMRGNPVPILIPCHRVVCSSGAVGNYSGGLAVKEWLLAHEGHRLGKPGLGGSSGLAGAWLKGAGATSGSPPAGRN
# Test: biochemical
# Set-up: fluorescence polarization labeling kinetics of purified tag proteins with TMR substrates, apparent second-order rate constant
# Conditions: read-out: hAGT kapp x 10^3
row,kinact/KI,SMILES
1,550 ± 50 M⁻¹ s⁻¹,"CN(C)c1ccc2c(-c3cc(C(=O)NCc4ccc(COc5cc(Cl)nc(N)n5)cc4F)ccc3C(=O)[O-])c3ccc(=[N+](C)C)cc-3oc2c1 [compound 22, CF–TMR]"
2,640 ± 40 M⁻¹ s⁻¹,"CN(C)c1ccc2c(-c3cc(C(=O)NCc4ccc(COc5cc(C(F)(F)F)nc(N)n5)cc4)ccc3C(=O)[O-])c3ccc(=[N+](C)C)cc-3oc2c1 [compound 4, CF3P–TMR]"
3,520 ± 60 M⁻¹ s⁻¹,"CN(C)c1ccc2c(-c3cc(C(=O)NCc4ccc(COc5cc(C(F)(F)F)nc(N)n5)cc4F)ccc3C(=O)[O-])c3ccc(=[N+](C)C)cc-3oc2c1 [compound 30, TF–TMR]"
4,800 ± 40 M⁻¹ s⁻¹,CN(C)c1ccc2c(-c3cc(C(=O)NCc4ccc(COc5cc(Cl)nc(N)n5)cc4)ccc3C(=O)[O-])c3ccc(=[N+](C)C)cc-3oc2c1 [CP–TMR]
